Assays:
[1] = tested on: myeloma cells; test: Senescence in myeloma cells; format: cell-based, human; conditions: 10 μM, after 72 hours
[2] = tested on: wild type Pu27 sequence; test: PCR stop assay, wild type sequence; format: biochemical; conditions: concentrations comparable to the Kd
[3] = tested on: c-Myc protein in H157 cells; test: c-Myc protein expression by Western blot, H157; format: cell-based, human; conditions: 10 μM
Description: The effect of Compound 23 on the expression of c-Myc protein in the human lung cancer cell lines H1299 and H157 was also assayed. H1299 and H157 cells were treated with 10 μM Compound 23 and c-Myc protein expression levels quantified by Western blot. In Compound 23-treated H1299 cells, c-Myc protein expression levels were approximately 55% compared to untreated control cells. In Compound 23-treated H157 cells, c-Myc protein expression levels were approximately 74% compared to untreated control cells.

Structure (SMILES) | senescent state [1] | inhibition of PCR amplification [2] | c-Myc protein expression levels compared to untreated control cells [3]
Cc1ccc(NC(=O)c2c(C)oc3ccc(O)c(CN4CCCCCC4)c23)cc1 [Compound 1] | triggered a senescent state | dose-dependent inhibition | –
Cc1oc2ccc(O)c(CN3CCCCCC3)c2c1C(=O)Nc1ccc(C(F)(F)F)cc1 [Compound 23] | – | – | approximately 74%

Reference: patent US11014902B2, “MYC G-quadruplex stabilizing small molecules and their use” (The United States of America, as represented by the …, priority 2015, dated 2021)
